Laboratory results from PubChem BioAssay AID330 (DTP/NCI, 2004).
Several values for one entry are separate records, joined by “and”; a condition that tells them apart may be missing. Equal entries are not always repeated. Toxic doses and inconclusive results are not listed. Rule for the calls: active = survival T/C of 150% or more; inactive = T/C below 125% in these data.

Test system: P388 leukemia ip, CD2F1 mice, survival T/C
Assay: NCI In Vivo Anticancer Drug Screen. Data for tumor model P388 Leukemia (intraperitoneal) in CD2F1 (CDF1) mice
Details: endpoint: median survival time, higher = longer survival
Procedure, shortened: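 Mice carrying the transplanted tumor received test compound or vehicle. Survival was recorded in each group, and the value is the treated-group measurement divided by that of the vehicle-treated control group.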

[1] = dose: 50.0 mg/kg/injection, schedule: Q01DX009 (ip), vehicle: saline with Tween-80
[2] = dose: 100.0 mg/kg/injection, schedule: Q01DX009 (ip), vehicle: saline with Tween-80
[3] = dose: 200.0 mg/kg/injection, schedule: Q01DX009 (ip), vehicle: saline with Tween-80
[4] = dose: 50.0 mg/kg/injection, schedule: Q01DX005 (ip), vehicle: saline with Tween-80
[5] = dose: 200.0 mg/kg/injection, schedule: Q01DX005 (ip), vehicle: saline with Tween-80

Measured: T/C

O=C1CN(C(=O)Nc2ccc(Cl)c(Cl)c2)C(=S)N1
inactive: dose: 6.25 mg/kg/injection, schedule: Q01DX009 (ip), vehicle: Klucel (hydroxypropylcellulose) (HPC) 88 % of control | dose: 12.5 mg/kg/injection, schedule: Q01DX009 (ip), vehicle: Klucel (hydroxypropylcellulose) (HPC) 101 % of control | dose: 25.0 mg/kg/injection, schedule: Q01DX009 (ip), vehicle: Klucel (hydroxypropylcellulose) (HPC) 103 % of control and 90 % of control

Cc1nc2c([N+](=O)[O-])c(N3CCN(c4ccccc4)CC3)c([N+](=O)[O-])cc2[nH]1
inactive: [1] 100 % of control | [2] 100 % of control | [3] 99 % of control

COc1ccc(/C=C/C(C)=O)c(OC)c1
inactive: dose: 100.0 mg/kg/injection, schedule: Q01DX001 (ip), vehicle: Klucel (hydroxypropylcellulose) (HPC) 108 % of control | dose: 200.0 mg/kg/injection, schedule: Q01DX001 (ip), vehicle: Klucel (hydroxypropylcellulose) (HPC) 101 % of control

Oc1ccc(Br)cc1C=NCCS
inactive: dose: 15.0 mg/kg/injection, schedule: Q01DX005 (ip), vehicle: saline with Tween-80 97 % of control | dose: 30.0 mg/kg/injection, schedule: Q01DX005 (ip), vehicle: saline with Tween-80 94 % of control | dose: 240.0 mg/kg/injection, schedule: Q01DX005 (ip), vehicle: saline with Tween-80 89 % of control

CCOC(=O)c1c(-c2ccccc2)csc1NC(=O)CN1CCOCC1
inactive: dose: 12.5 mg/kg/injection, schedule: Q01DX005 (ip), vehicle: saline with Tween-80 98 % of control | dose: 25.0 mg/kg/injection, schedule: Q01DX005 (ip), vehicle: saline with Tween-80 90 % of control | [4] 86 % of control | [5] 88 % of control

COc1ccc2c(c1)c(COC(C)=O)c(COC(C)=O)c[n+]2[O-]
inactive: dose: 50.0 mg/kg/injection, schedule: Q01DX005 (ip), vehicle: Klucel (hydroxypropylcellulose) (HPC) 98 % of control | dose: 100.0 mg/kg/injection, schedule: Q01DX005 (ip), vehicle: Klucel (hydroxypropylcellulose) (HPC) 97 % of control | dose: 200.0 mg/kg/injection, schedule: Q01DX005 (ip), vehicle: Klucel (hydroxypropylcellulose) (HPC) 94 % of control

CCOc1c(OC)cc(-c2n[nH]c(=O)o2)cc1OC
inactive: dose: 33.75 mg/kg/injection, schedule: Q01DX009 (ip), vehicle: Klucel (hydroxypropylcellulose) (HPC) 90 % of control | dose: 67.5 mg/kg/injection, schedule: Q01DX009 (ip), vehicle: Klucel (hydroxypropylcellulose) (HPC) 105 % of control | dose: 135.0 mg/kg/injection, schedule: Q01DX009 (ip), vehicle: Klucel (hydroxypropylcellulose) (HPC) 99 % of control

NC(=O)c1nnn2c1nc(N)c1ccccc12
inactive: [1] 90 % of control | [2] 89 % of control | [3] 91 % of control

CC(=O)On1nnc2ccccc2c1=O
inactive: dose: 6.25 mg/kg/injection, schedule: Q01DX009 (ip), vehicle: distilled water + Tween-80 97 % of control | dose: 12.5 mg/kg/injection, schedule: Q01DX009 (ip), vehicle: distilled water + Tween-80 100 % of control | dose: 25.0 mg/kg/injection, schedule: Q01DX009 (ip), vehicle: distilled water + Tween-80 97 % of control

NOCc1ccccc1
inactive: dose: 100.0 mg/kg/injection, schedule: Q01DX009 (ip), vehicle: Klucel (hydroxypropylcellulose) (HPC) 93 % of control | dose: 200.0 mg/kg/injection, schedule: Q01DX009 (ip), vehicle: Klucel (hydroxypropylcellulose) (HPC) 86 % of control

CC1(C)OC(CC(=O)O)C23COC(C(=O)C4(C)C2CCC2(C)C(c5ccoc5)OC(=O)C5OC524)C13 (configuration not stated)
inactive: dose: 0.75 mg/kg/injection, schedule: Q01DX009 (ip), vehicle: saline + alcohol 106 % of control | dose: 1.5 mg/kg/injection, schedule: Q01DX009 (ip), vehicle: saline + alcohol 99 % of control | dose: 3.0 mg/kg/injection, schedule: Q01DX009 (ip), vehicle: saline + alcohol 101 % of control | dose: 6.0 mg/kg/injection, schedule: Q01DX009 (ip), vehicle: saline + alcohol 101 % of control

CCOc1ccc2cc(S(=O)(=O)O)ccc2c1N
inactive: dose: 100.0 mg/kg/injection, schedule: Q04DX003 (ip), vehicle: saline with Tween-80 100 % of control | dose: 200.0 mg/kg/injection, schedule: Q04DX003 (ip), vehicle: saline with Tween-80 90 % of control | dose: 400.0 mg/kg/injection, schedule: Q04DX003 (ip), vehicle: saline with Tween-80 100 % of control

C/C(N=NC(=S)N1CCCC(C)C1)=C1\C=CC=CN1O (configuration not stated)
inactive: [4] 101 % of control | dose: 100.0 mg/kg/injection, schedule: Q01DX005 (ip), vehicle: saline with Tween-80 98 % of control | [5] 112 % of control

O=c1c(N=Nc2ccccc2)c(C(O)C(O)CO)[nH]n1-c1ccc(Cl)cc1 (configuration not stated)
inactive: dose: 63.5 mg/kg/injection, schedule: Q01DX001 (ip), vehicle: Klucel (hydroxypropylcellulose) (HPC) 87 % of control | dose: 127.0 mg/kg/injection, schedule: Q01DX001 (ip), vehicle: Klucel (hydroxypropylcellulose) (HPC) 89 % of control | dose: 254.0 mg/kg/injection, schedule: Q01DX001 (ip), vehicle: Klucel (hydroxypropylcellulose) (HPC) 100 % of control
